From publication PMC6771811, “The structure of a GH149 β‐(1 → 3) glucan phosphorylase reveals a new surface oligosaccharide binding site and additional domains that are absent in the disaccharide‐specific GH94 glucose‐β‐(1 → 3)‐glucose (laminaribiose) phosphorylase” (Proteins, 2019)

Biological target: T1, Pro_7066 (uncultured bacterium, UniProt Z9M604V374)
T1 construct: His6-tagged, pET28a, E. coli BL21 (DE3); tag removal not mentioned; 130-kDa chain, homodimer; domains span residues 1-1156; GH149
T1 sequence (Z9M604V374 20-1175): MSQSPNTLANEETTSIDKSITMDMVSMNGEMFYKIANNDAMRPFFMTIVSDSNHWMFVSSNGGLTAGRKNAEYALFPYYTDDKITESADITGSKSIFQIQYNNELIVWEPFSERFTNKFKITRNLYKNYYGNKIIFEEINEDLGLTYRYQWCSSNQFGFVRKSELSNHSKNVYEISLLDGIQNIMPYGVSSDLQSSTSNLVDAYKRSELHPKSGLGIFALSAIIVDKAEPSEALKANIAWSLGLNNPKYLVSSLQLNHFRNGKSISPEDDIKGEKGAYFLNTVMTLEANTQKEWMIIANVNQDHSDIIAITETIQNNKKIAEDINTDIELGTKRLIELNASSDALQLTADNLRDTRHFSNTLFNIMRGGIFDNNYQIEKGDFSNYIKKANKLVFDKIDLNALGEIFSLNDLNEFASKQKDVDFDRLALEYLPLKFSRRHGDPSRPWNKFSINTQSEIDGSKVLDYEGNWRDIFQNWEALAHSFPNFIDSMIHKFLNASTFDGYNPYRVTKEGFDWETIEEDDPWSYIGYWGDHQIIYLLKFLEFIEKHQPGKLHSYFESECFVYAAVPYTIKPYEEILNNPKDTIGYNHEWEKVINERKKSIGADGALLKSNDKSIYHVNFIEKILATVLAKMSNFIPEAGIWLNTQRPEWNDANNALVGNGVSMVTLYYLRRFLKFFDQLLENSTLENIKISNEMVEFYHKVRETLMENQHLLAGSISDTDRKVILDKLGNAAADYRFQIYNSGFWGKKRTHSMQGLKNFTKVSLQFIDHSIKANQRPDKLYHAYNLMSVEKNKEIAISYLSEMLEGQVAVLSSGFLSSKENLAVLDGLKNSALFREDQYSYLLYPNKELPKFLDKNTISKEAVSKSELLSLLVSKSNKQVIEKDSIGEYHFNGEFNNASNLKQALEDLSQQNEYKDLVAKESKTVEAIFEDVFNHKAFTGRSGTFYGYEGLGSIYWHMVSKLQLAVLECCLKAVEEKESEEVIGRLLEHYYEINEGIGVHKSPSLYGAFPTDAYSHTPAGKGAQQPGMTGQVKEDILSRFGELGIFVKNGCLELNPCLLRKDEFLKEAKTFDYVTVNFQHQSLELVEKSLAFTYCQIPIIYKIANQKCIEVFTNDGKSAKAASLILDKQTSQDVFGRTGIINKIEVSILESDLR
Assay: X-ray crystal structure (co-crystallization), […] Å
Conditions: 8 mM G6, pH 9.0; surface binding site on catalytic domain, ~30 Å from active site; active site holds bicine and sulfate

With `OC[C@H]1O[C@@H](O[C@@H]2[C@@H](O)[C@H](O[C@@H]3[C@@H](O)[C@H](O[C@@H]4[C@@H](O)[C@H](O[C@@H]5[C@@H](O)[C@H](O[C@H]6[C@H](O)[C@@H](CO)OC(O)[C@@H]6O)O[C@H](CO)[C@H]5O)O[C@H](CO)[C@H]4O)O[C@H](CO)[C@H]3O)O[C@H](CO)[C@H]2O)[C@H](O)[C@@H](O)[C@@H]1O` (stereo partly shown) [G6, laminarihexaose] the “X-ray crystal structure (co-crystallization), 2.25 Å” value was “G6 bound to a SBS located on the solvent‐exposed surface of the catalytic domain”.
